In ChEMBL document CHEMBL1287786, “Synthesis, antimicrobial and antioxidant evaluation of quinolines and bis(indolyl)methanes” (2010) one finds zone of inhibition and Activity data, which are given here for 4 compounds.

Type in all cases: functional
One test concerns Staphylococcus aureus. As to the kind of experiment: Antibacterial activity against Staphylococcus aureus ATCC 25923 at 1000 ug/ml after 24 hrs by cup plate method. Conditions: ATCC 25923, 24 h, read-out: IZ.
For test [1], the system named is Radical scavenging activity. As to the kind of experiment: Antioxidant activity assessed as DPPH radical scavenging activity at 500 ug by spectrophotometry relative to control. In general terms: The DPPH test is a chemical assay of radical scavenging.
Test [2] in a line: Antioxidant activity assessed as hydrogen peroxide radical scavenging activity after 10 mins by spectrophotometry relative to control. The arrangement: concentration or dose not given beside the values.
A short description of test [3]: Antioxidant activity assessed as hydrogen peroxide radical scavenging activity after 40 mins by spectrophotometry relative to control. Also on record: concentration or dose not given beside the values.
For test [4], the system named is Radical scavenging activity. The test can be described thus: Antioxidant activity assessed as DPPH radical scavenging activity at 50 ug by spectrophotometry relative to control.
A short description of test [5]: Antioxidant activity assessed as hydrogen peroxide radical scavenging activity by spectrophotometry relative to control. The arrangement: concentration or dose not given beside the values.
In another test the test system is Escherichia coli. The test can be described thus: Antibacterial activity against Escherichia coli ATCC 25922 at 1000 ug/ml after 24 hrs by cup plate method. Conditions: ATCC 25922, 24 h, read-out: IZ.
Test [6] in a line: Antioxidant activity assessed as hydrogen peroxide radical scavenging activity after 30 mins by spectrophotometry relative to control. The arrangement: concentration or dose not given beside the values.
Test [7] can be described thus: Antioxidant activity assessed as hydrogen peroxide radical scavenging activity after 20 mins by spectrophotometry relative to control. The arrangement: concentration or dose not given beside the values.
For test [8], the system named is Radical scavenging activity. The test can be described thus: Antioxidant activity assessed as DPPH radical scavenging activity at 1000 ug by spectrophotometry relative to control.
The subject of another test is Candida albicans. As to the kind of experiment: Antifungal activity against Candida albicans ATCC 10231 at 1000 ug/ml after 24 hrs by cup plate method. The conditions noted are these: ATCC 10231, 24 h, read-out: IZ.

The structures appear in SMILES notation.

Consider `COc1cc(C(c2c(-c3ccccc3)[nH]c3ccccc23)c2c(-c3ccccc3)[nH]c3ccccc23)cc(Br)c1O`, for which the figures for the zone of inhibition at 1000 µg/mL in the test on Staphylococcus aureus, in the test with Escherichia coli and in the test with Candida albicans were 22 mm, 24 mm and 26 mm, respectively. Also, the Activity in [1] is 64%; in [2], 81%; in test [3] it was 65%; in [4], 27%; in test [5], 82%; in test [6] it was 71%. Besides, the Activity in test [7] amounted to 74%; in test [8] it was 70%.
For the compound `CCn1c2ccccc2c2cc(C(c3c(-c4ccccc4)[nH]c4ccccc34)c3c(-c4ccccc4)[nH]c4ccccc34)ccc21`, the zone of inhibition at 1000 µg/mL is 24 mm in the test with Staphylococcus aureus, 23 mm in the test on Escherichia coli and 24 mm in the test on Candida albicans. In addition, the Activity in test [1] turned out to be 42%; in test [2], 80%; in test [3] it was 65%; in test [4], 15%; in test [5], 85%; in test [6], 75%. The figures for the Activity in test [7] and in [8] were 82% and 73%, respectively.
Regarding `Brc1cc2c(cc1C(c1c(-c3ccccc3)[nH]c3ccccc13)c1c(-c3ccccc3)[nH]c3ccccc13)OCO2`, the zone of inhibition at 1000 µg/mL in the test on Staphylococcus aureus worked out at 25 mm; with Escherichia coli, 23 mm; with Candida albicans, 24 mm. In addition, the Activity in [1] was 23%; in test [2], 43%; in test [3] it was 21%; in [4], 10%; in [5], 57%; in [6], 30%. Besides, the results for the Activity in test [7] and in [8] were 39% and 42%, respectively.
Regarding `Clc1nc2ccccc2cc1C(c1c(-c2ccccc2)[nH]c2ccccc12)c1c(-c2ccccc2)[nH]c2ccccc12`, the results for the zone of inhibition at 1000 µg/mL with Staphylococcus aureus, in the test on Escherichia coli and in the test on Candida albicans were 18 mm, 15 mm and 18 mm, respectively. Further, the Activity in [1] turned out to be 12%; in test [2] it was 83%; in test [3], 68%; in [4], 2%; in [5] it was 84%; in test [6], 73%. In addition, the Activity amounted to 80% in test [7] and 35% in test [8].
